Among the targets are HLA A*6802 (Homo sapiens, UniProt P04439, A269V/D140Y/D185E/E176V/E277Q/E87N/F33Y/G231S/I121R/I166T/I218V/L180W/L300P/L318F/N151K/P208A/P217A/Q86R/R138H/R169H/S129P/T345S/V36M); HLA B*3501 (Homo sapiens, UniProt P01889, A329T/A93T/A95T/C349S/D201E/D98Y/E176V/E187L/E204Q/E69T/I218V/K202T/L119I/Q94N/R155S/R180L/S121R/S35A/S48A/T118I/V127L/V306I/V36M/Y140S/Y91F); HLA B*5101 (Homo sapiens, UniProt P01889, A329T/A93T/A95T/C349S/D138N/D201E/D98Y/E187L/E204Q/E69T/G107R/I218V/K202T/L105A/L119W/N104I/Q94N/R106L/R155S/R180L/S101N/S121T/S35A/S48A/V306I/V36M/Y195H/Y91F); HLA B*5301 (Homo sapiens, UniProt P01889, A329T/A93T/A95T/C349S/D201E/D98Y/E176V/E187L/E204Q/E69T/G107R/I218V/K202T/L105A/L119I/N104I/Q94N/R106L/R155S/R180L/S101N/S121R/S35A/S48A/T118I/V127L/V306I/V36M/Y140S/Y91F); HLA B*5401 (Homo sapiens, UniProt P01889, A329T/C349S/D138N/D201E/E176V/E187T/E204Q/E69G/I76V/K202T/L119W/R155S/R180L/S121T/S35A/S48A/V127L/V306I/V36M/Y140L); HLA B*5801 (Homo sapiens, UniProt P01889, A329T/C349S/D201E/D98Y/E176V/E187L/E204Q/E69T/G107R/I218V/I90N/K202T/L105A/L119I/N104I/N87E/Q89R/Q94S/R106L/R155S/R180L/R86G/S101N/S121R/S35A/S48A/T118I/V127L/V306I/V36M/Y140S/Y91M); HLA B*5802 (Homo sapiens, UniProt P01889, A329T/C349S/D201E/D98Y/E176V/E187L/E204Q/E69T/G107R/I218V/I90N/K202T/L105A/N104I/N87E/Q89R/Q94S/R106L/R155S/R180L/R86G/S101N/S121W/S35A/S48A/V127L/V306I/V36M/Y140S/Y91M); H-2 D^b (Mus musculus, UniProt P01899); H-2 D^d (Mus musculus, UniProt P01900); H-2 K^d (Mus musculus, UniProt P01902); H-2 K^k (Mus musculus, UniProt P04223).

What all share (assay type): binding
In another experiment the target is HLA A*3001 (Homo sapiens, UniProt P04439, D140H/D185E/E176W/F33S/G80R/H175R/K168Q/R138E/R41S). Kind of experiment: biochemical.
The next experiment deals with HLA A*3201 (Homo sapiens, UniProt P04439, A270S/D101S/D185E/E176V/E277Q/F133L/G103R/G107R/G231S/H175R/I121M/I218V/I322F/K168Q/L105A/L300P/L318F/M331R/P208A/P217A/Q94H/R106L/R138Q/S129P/T104I/T323A/T345S/V100E/V321M/V358M). Kind of experiment: biochemical.
Another experiment concerns the target HLA B*0801 (Homo sapiens, UniProt P01889, A93T/A95T/D138N/E176V/E187T/K202T/Q94N/R180D/S35A/V36M/Y33D/Y91F). Kind of experiment: biochemical.
A further experiment concerns the target HLA B*1501 (Homo sapiens, UniProt P01889, A329T/A93T/A95T/C349S/D201E/D98Y/E187L/E204Q/E69M/E70A/K202T/N87E/Q94N/R155S/R180W/S121R/S35A/S48A/V306I/V36M/Y140S/Y91S). Put plainly: biochemical.
In another experiment the target is HLA B*1503 (Homo sapiens, UniProt P01889, A329T/A93T/A95T/C349S/D201E/D98Y/E187L/E204Q/K202T/N87E/Q94N/R155S/R180L/S121R/S35A/V306I/V36M/Y140S/Y91S). Put plainly: biochemical.

Chain of H-2 D^d (P01900 whole entry, looked up): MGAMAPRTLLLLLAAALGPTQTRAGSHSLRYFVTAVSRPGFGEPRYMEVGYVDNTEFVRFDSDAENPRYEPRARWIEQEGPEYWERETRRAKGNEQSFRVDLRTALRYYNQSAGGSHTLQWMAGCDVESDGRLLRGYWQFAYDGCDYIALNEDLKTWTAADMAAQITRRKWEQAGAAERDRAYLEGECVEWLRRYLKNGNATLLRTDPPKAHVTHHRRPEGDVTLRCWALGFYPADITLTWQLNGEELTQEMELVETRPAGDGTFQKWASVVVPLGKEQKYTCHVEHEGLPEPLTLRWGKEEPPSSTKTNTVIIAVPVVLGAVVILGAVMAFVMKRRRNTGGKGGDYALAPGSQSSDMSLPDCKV
Chain of H-2 K^k (P01887 21-119): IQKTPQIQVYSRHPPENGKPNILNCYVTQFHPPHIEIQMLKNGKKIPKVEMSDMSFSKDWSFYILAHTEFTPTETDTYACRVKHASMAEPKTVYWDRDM
Chain of H-2 K^k (P04223 22-369): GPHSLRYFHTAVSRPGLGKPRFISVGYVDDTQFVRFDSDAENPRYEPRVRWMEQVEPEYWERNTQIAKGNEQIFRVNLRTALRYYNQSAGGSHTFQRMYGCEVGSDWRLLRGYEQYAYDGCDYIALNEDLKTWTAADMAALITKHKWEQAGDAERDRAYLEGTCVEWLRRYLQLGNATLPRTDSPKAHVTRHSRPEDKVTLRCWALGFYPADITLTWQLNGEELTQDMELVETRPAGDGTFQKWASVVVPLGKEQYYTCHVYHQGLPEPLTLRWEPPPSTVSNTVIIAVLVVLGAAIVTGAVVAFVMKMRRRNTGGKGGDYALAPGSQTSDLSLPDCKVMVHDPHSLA
Chain of H-2 K^d (P01887 21-119): as the sequence (P01887 21-119) above
Chain of H-2 K^d (P01902 22-368): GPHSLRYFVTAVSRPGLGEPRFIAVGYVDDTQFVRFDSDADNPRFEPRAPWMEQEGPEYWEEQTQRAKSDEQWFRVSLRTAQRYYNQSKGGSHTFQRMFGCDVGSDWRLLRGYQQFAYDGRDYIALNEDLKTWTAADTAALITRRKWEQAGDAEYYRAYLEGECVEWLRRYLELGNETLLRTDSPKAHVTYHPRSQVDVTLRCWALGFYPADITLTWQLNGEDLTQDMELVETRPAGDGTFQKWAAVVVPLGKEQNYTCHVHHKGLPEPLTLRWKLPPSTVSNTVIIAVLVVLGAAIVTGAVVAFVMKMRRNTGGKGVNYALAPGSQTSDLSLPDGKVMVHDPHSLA
Chain of H-2 D^b (P01887 21-119): as the sequence (P01887 21-119) above
Chain of H-2 D^b (P01899 25-362): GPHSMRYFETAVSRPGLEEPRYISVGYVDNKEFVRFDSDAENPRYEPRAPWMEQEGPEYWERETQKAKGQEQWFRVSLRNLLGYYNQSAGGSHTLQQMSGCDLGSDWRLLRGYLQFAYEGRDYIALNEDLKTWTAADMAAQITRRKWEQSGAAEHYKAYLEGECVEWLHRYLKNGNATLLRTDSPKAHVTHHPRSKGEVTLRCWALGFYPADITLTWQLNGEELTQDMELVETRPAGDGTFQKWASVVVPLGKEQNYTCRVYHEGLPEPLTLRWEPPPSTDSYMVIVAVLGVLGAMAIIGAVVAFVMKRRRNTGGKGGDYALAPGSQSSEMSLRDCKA

As for XXXXXXRXX [3064.0135], the “Normalized average relative binding affinity(ARB)” value on HLA A*3001 stood at 0.085; at HLA A*3201, 0.10; on HLA A*6802, 0.11; on HLA B*0801 it was 0.50; at HLA B*1501 it was 0.22; at HLA B*1503 it was 0.21. For the same sequence, the “Normalized average relative binding affinity(ARB)” value on HLA B*3501 stood at 0.16; at HLA B*5101 it was 0.57; on HLA B*5301, 0.25; on HLA B*5401 it was 0.13; at HLA B*5801 it was 0.075; at HLA B*5802 it was 0.21. Moreover, the “Normalized average relative binding affinity(ARB)” value on H-2 D^b is recorded as 0.15; at H-2 D^d it was 0.013; at H-2 K^d, 0.11; at H-2 K^k, 0.21.
XXXXXXSXX [3064.0136]: the “Normalized average relative binding affinity(ARB)” value worked out at 0.042 on HLA A*3001; 0.14 at HLA A*3201; 0.40 at HLA A*6802; 0.35 at HLA B*0801; 0.65 on HLA B*1501; 0.32 on HLA B*1503. The “Normalized average relative binding affinity(ARB)” value on HLA B*3501 turned out to be 0.22; on HLA B*5101, 0.51; on HLA B*5301, 0.087; at HLA B*5401, 0.098; at HLA B*5801, 0.14; at HLA B*5802, 0.044. The “Normalized average relative binding affinity(ARB)” value came to 0.34 at H-2 D^b, 0.038 at H-2 D^d, 0.92 on H-2 K^d and 0.16 on H-2 K^k.
In the case of XXXXXXTXX [3064.0137], the “Normalized average relative binding affinity(ARB)” value was determined as 0.11 at HLA A*3001; 0.14 at HLA A*3201; 0.60 on HLA A*6802; 0.46 on HLA B*0801; 0.49 at HLA B*1501; 0.16 on HLA B*1503. Also, the “Normalized average relative binding affinity(ARB)” value is reported as 0.27 on HLA B*3501; 0.58 on HLA B*5101; 0.081 at HLA B*5301; 0.33 on HLA B*5401; 0.28 at HLA B*5801; 0.057 on HLA B*5802. The “Normalized average relative binding affinity(ARB)” value at H-2 D^b was 0.67; at H-2 D^d it was 0.029; at H-2 K^d, 1.0; on H-2 K^k, 0.061.
Consider XXXXXXVXX [3064.0138], for which the “Normalized average relative binding affinity(ARB)” value at HLA A*3001 came to 0.19; at HLA A*3201, 1.0; on HLA A*6802 it was 0.80; on HLA B*0801, 0.55; on HLA B*1501, 0.56; on HLA B*1503, 0.19. Further, the “Normalized average relative binding affinity(ARB)” value at HLA B*3501 was found to be 0.57; at HLA B*5101, 0.57; on HLA B*5301, 0.32; at HLA B*5401 it was 0.77; on HLA B*5801 it was 0.53; at HLA B*5802, 0.073. For the same sequence, the “Normalized average relative binding affinity(ARB)” value at H-2 D^b worked out at 0.57; on H-2 D^d, 0.045; at H-2 K^d, 0.13; at H-2 K^k, 0.079.
XXXXXXWXX [3064.0139]: the “Normalized average relative binding affinity(ARB)” value at HLA A*3001 amounted to 0.16; at HLA A*3201 it was 0.48; on HLA A*6802 it was 1.0; at HLA B*0801 it was 0.53; on HLA B*1501, 0.31; at HLA B*1503 it was 0.15. Moreover, the “Normalized average relative binding affinity(ARB)” value at HLA B*3501 worked out at 1.0; at HLA B*5101, 0.91; at HLA B*5301, 0.31; on HLA B*5401, 0.22; on HLA B*5801 it was 0.79; at HLA B*5802 it was 0.18. For the same sequence, the “Normalized average relative binding affinity(ARB)” value is reported as 0.31 at H-2 D^b, 0.044 on H-2 D^d, 0.056 on H-2 K^d and 0.064 at H-2 K^k.
Regarding XXXXXXXAX [3064.0141], the “Normalized average relative binding affinity(ARB)” value at HLA A*3001 was 0.53; at HLA A*3201 it was 0.99; at HLA A*6802, 1.0; at HLA B*0801 it was 0.95; at HLA B*1501, 0.36; at HLA B*1503 it was 0.27. Moreover, the “Normalized average relative binding affinity(ARB)” value on HLA B*3501 came to 1.0; at HLA B*5101, 0.52; at HLA B*5301, 0.80; on HLA B*5401, 0.50; at HLA B*5801, 0.14; on HLA B*5802 it was 0.31. For the same sequence, the “Normalized average relative binding affinity(ARB)” value is 0.50 on H-2 D^b, 0.93 at H-2 D^d, 1.0 on H-2 K^d and 0.82 at H-2 K^k.

(Values after article PMC2248166, “Quantitative peptide binding motifs for 19 human and mouse MHC class I molecules derived using positional scanning combinatorial peptide libraries” (Immunome Research, 2008).)
